The source of these data is patent publication US20200063210A1, “Gene Expression Signatures Associated with Patient Response to Acute Myeloid Leukemia Treatment and Use Thereof for Predicting Response to Therapy” (WAKE FOREST UNIVERSITY HEALTH SCIENCES, priority 2016, published 2020).

For test [1], the system named is relapsed or refractory AML. As to the kind of experiment: Phase I study of CPI-613 in combination with high dose cytarabine and mitoxantrone. The test is classed as in vivo, human. The source says: FIGS. 8A-8B. Survival compared to historical cohort. CPI-HAM survival in the evaluable population compared to a historical cohort. (FIG. 8A) Kaplan-Meier curve of overall survival of elderly AML patients treated with high dose cytarabine, mitoxantrone, and CPI-613 (CPI-HAM) or a historical cohort of poor risk relapsed or refractory patients treated with high dose cytarabine, mitoxantrone, and asparaginase (HAMA). (FIG. 8B) Kaplan-Meier curve of overall survival of poor risk, relapsed or refractory AML patients treated with high dose cytarabine, mitoxantrone, and CPI-613 (CPI-HAM) or a historical cohort of poor risk relapsed or refractory patients treated with high dose cytarabine, mitoxantrone, and asparaginase (HAMA). Kaplan-Meier estimates were compared by log-rank test.
In a recently completed phase I study, CPI-613 was given in combination with high dose cytarabine and mitoxantrone to patients with relapsed or refractory AML (FIGS. 6-7). In this trial, 67 patients were enrolled and 62 were evaluable. […] The median age was 60 years (range 21-79). In patients with relapsed disease the median duration of CR1 was 11.2 months. Cytogenetics were poor risk in 27 patients, intermediate in 33, and good in 6. In the 62 evaluable patients the results were as follows. The overall response rate was 50% (26CR+5CRi) with a median survival of 6.7 months. […] When compared to historical controls treated with the same chemotherapy without CPI-613 an increase in response rate was seen. […] Additionally, the median survival of the historical patients was only 2.8 months while the median survival in the CPI-613 treated patients was 5.5 months (FIG. 8B). […] In patients >60 years old the CR/CRi rate was 47% (15/32) with a median survival of 6.9 months (FIG. 8A).

A further test concerns PDH. Nature of the test: PDH phosphorylation in patient blood samples before and after CPI-613 infusion. The format is in vivo, human. The following applies: three patients. As to the method:
(§1) Several patients had blood samples taken before and after CPI-613 infusion. […] The role of AMPK in response was assessed by competition assays using Cas-9 expressing AML cells that have deleted AMPK (FIG. 9B).

Test [2] has as its system AMPK deleted MFL2 AML cells. As to the kind of experiment: Competition assay, Cas9 expressing MFL2 cells with sgRNA targeting AMPK. The format is cell-based. The following applies: 72 hours with drug, % GFP+ in the viable population. As to the method: (§2) FIGS. 9A-9C. AMPK Contributes to Resistance to CPI-613. (FIG. 9A) CPI-613 induces AMPK phosphorylation. Blood samples were taken on day one of treatment at the indicated time points following infusion of CPI-613. Red blood cells were lysed, and mononuclear cells were isolated. Extracts were prepared and blotted for phosphorylated AMPK. Both patients had circulating blasts at the time of sampling. Actin was used as a loading control. (FIG. 9B) Competition assay. Cas9 expressing MFL2 cells were partially infected with an sgRNA vector targeting AMPK tagged with GFP. Cells were incubated with the indicated drug for 72 hours and the % GFP+determined in the viable population. (FIG. 9C) Viability assay. Clones of Cas9 expressing MFL2 cells with sgRNAs targeting AMPK or ROSA26 were incubated with the indicated drug for 72 hours and viability determined.
as §1

A further test relates to Murine AML cells (M1p5). Nature of the test: Viability of M1p5 AML cells expressing p53 shRNA or vector control. The test is classed as cell-based. The following applies: 72 hours; for response of p53 shRNA cells compared to vector controls (viability): single agent. How it is done: FIGS. 10A-10C. CPI-613 induces chemotherapy sensitivity in p53 suppressed AML cells. (FIG. 10A) Murine AML cells (M1p5) expressing an shRNA against p53 (p53 shRNA) or vector control (GFP Control) were exposed to the indicated amount of CPI-613 (in μmoles). After 72 hours viability was determined and compared to untreated cells. (FIG. 10B) Murine AML cells (M1p5) expressing an shRNA against p53 (p53 shRNA) or vector control (GFP Control) were exposed to the indicated amount of doxorubicin (in nmoles). After 72 hours viability was determined and compared to untreated cells. (FIG. 10C) Murine AML cells (M1p5) expressing an shRNA against p53 (p53 shRNA) or vector control (GFP Control) were exposed to 50 μM CPI-613 and 2.5, 5, or 10 nM Doxorubicin for 72 hours. Following exposure viability was assessed and compared to untreated cells.
Loss of p53 is associated with poor risk cytogenetics, poor prognosis and resistance to chemotherapy but not resistance to CPI-613. In AML patients poor risk karyotypes are associated with p53 loss or mutation in 70-80% of cases (13, 29). Indeed it has been argued that much of the prognostic importance of poor risk karyotypes is mediated by p53 loss (13). This is not surprising given the association between p53 status and response to chemotherapy in AML (30). In order to assess the consequences of p53 suppression on mitochondrial inhibition we generated murine AML cells that knocked down p53 by shRNA.

Test [3] has as its system advanced myeloid malignancies. The following applies: single agent; heavily pre-treated cohort; cited from earlier work.
In the next test the test system is AML cell lines. As to the kind of experiment: AML cell growth under mitochondrial inhibition. The format is cell-based, human and murine. The following applies: for AML cell growth: multiple human and murine cell lines, single agent.
For another test, the system named is Baf3-p210 cells. As to the kind of experiment: Survival of Balb/c mice injected with Baf3-p210 cells. The test is classed as in vivo. The following applies: CPI at 250 mg/kg plus Doxorubicin at 3 mg/kg, day 3. As to the method: FIG. 4. […] Balb/c mice were injected with Baf3-p210 cells and on day 3 treated with saline (control), Doxorubicin at 3 mg/kg or CPI at 250 mg/kg plus doxorubicin. Dox=Doxorubicin, CPI=CPI-613. P value shown is for Dox vs CPI-Dox.

In another test the test system is AMPK. Nature of the test: AMPK phosphorylation blot of patient mononuclear cells after CPI-613 infusion. The test is classed as in vivo, human. The following applies: two patients, day one after infusion. As to the method:
as §2, §1

Another test deals with OCI-AML3. Nature of the test: Oxygen consumption rate after Ara-C, OCI-AML3. The format is cell-based. The following applies: Ara-C for 16 hours. How it is done: (§3) FIGS. 2A-2B. […] K562 cells (FIG. 2A) and OCI-AML3 (FIG. 2B) and were treated with Ara-C for 16 hours and oxygen consumption rate (OCR) was assessed. Shown is the average OCR from 3 independent experiments each done in triplicate. P value for OCI-AML3 is 0.0387 and for K562 is <0.0001.

In the next test the test system is K562 cells. Nature of the test: Oxygen consumption rate after Ara-C, K562. The format is cell-based. The following applies: Ara-C for 16 hours. How it is done: as §3
The mark [4] stands for this setting: 62 evaluable patients, CPI-613 with high dose cytarabine and mitoxantrone.

Turning to `O=C(O)CCCCC(CCSCc1ccccc1)SCc1ccccc1` (stereo not shown) [CPI-613], in [1] (setting [4]), the median survival is listed as 6.7 months and the “overall response rate (CR+CRi)” value was determined as 50%. Moreover, the “CR/CRi rate, patients >60 years old” value in test [1] (patients >60 years old (15/32)) amounted to 47%. The “median survival, patients >60 years old” value in test [1] (patients >60 years old (FIG. 8A)) is 6.9 months. The “median survival for all others” value in [1] (patients without response, CPI-613 with high dose cytarabine and mitoxantrone) amounted to 3 months. Further, the “median survival, poor risk” value in [1] (poor risk CPI-613 treated patients (FIG. 8B)) is 5.5 months. The “response rate, poor risk cytogenetics” value in test [1] (poor risk cytogenetics (9CR+2CRi/24), CPI-613 with high dose cytarabine and mitoxantrone) is listed as 46%. Besides, in [1] (poor risk disease, compared with the same chemotherapy without CPI-613), the “response rate versus historical controls, poor risk disease” value is given as “more than doubled”. Besides, the “median survival in responders” value in [1] (responders, CPI-613 with high dose cytarabine and mitoxantrone) was found to be 13.2 months. For the same compound, the “phosphorylation of PDH” value with PDH is “increased phosphorylation of PDH”. In addition, the “competition of normal versus AMPK deleted cells” value in test [2] is reported as “Normal cells out-competed AMPK deleted cells”. In addition, in the test with Murine AML cells (M1p5) (50 μM CPI-613 and 2.5, 5, or 10 nM Doxorubicin), the “sensitivity of p53 shRNA cells to doxorubicin in presence of CPI-613” value is “increased sensitivity to doxorubicin to that of the controls”. The “response of p53 shRNA cells compared to vector controls (viability)” value in the test on Murine AML cells (M1p5) is given as “no change in response”. In addition, the overall response rate in [3] is on record as 29%. The AML cell growth entry in the test on AML cell lines is “impairs AML cell growth”. In addition, the “combination effect of metformin and CPI-613” value with AML cell lines (the two together) is “synergistic in vitro and in vivo”. For the same compound, in the test on Baf3-p210 cells, the “combination effect with doxorubicin in vivo” value was “acts synergistically with doxorubicin in vivo”. In addition, the “phosphorylation of AMPK” value in the test on AMPK is “robust phosphorylation of AMPK”.

`Nc1ccn([C@@H]2O[C@H](CO)[C@@H](O)[C@@H]2O)c(=O)n1` [cytarabine]: the “oxygen consumption rate (OCR)” value with OCI-AML3 and with K562 cells was “induces mitochondrial metabolism” each time.

For `COc1cccc2c1C(=O)c1c(O)c3c(c(O)c1C2=O)C[C@@](O)(C(=O)CO)C[C@@H]3O[C@H]1C[C@H](N)[C@H](O)[C@H](C)O1` [doxorubicin], the “response of p53 shRNA cells compared to vector controls (viability)” value in the test on Murine AML cells (M1p5) is reported as “significantly resistant”.

In the case of `CN(C)C(=N)N=C(N)N` [metformin], the AML cell growth entry with AML cell lines is on record as “impairs AML cell growth”.
